Measured values published in US8962322B2, “Enhancers of induced pluripotent stem cell reprogramming” (City of Hope, priority 2012, dated 2015).

Tests used:
[1] = tested on: mouse embryonic fibroblasts (MEFs); test: iPSC derivation from 4F (OSKM)-transduced MEFs in mouse ESC media; format: cell-based
Description: The generation of iPSCs is a gradual process with relatively low efficiency. Since Oct4 is central to the reprogramming process (35, 36, 38), it was hypothesized that compounds that activate Oct4 transcription may facilitate iPSC generation by enhancing reprogramming efficiency. Reprogramming of mouse embryonic fibroblasts (MEFs) was performed with the 4F reprogramming quartet Oct4, Sox2, Klf4, and c-Myc, along with solvent control, OAC1 or its structural analogs OAC2 and OAC3. The same number of starting MEFs and the same viral stocks were used for each treatment. Two days after viral transduction, the 4F-transduced cells were seeded onto feeder cells in mouse ESC culture media, and this day was designated as day 0 (FIG. 2D). Compound treatment started on day 0 and lasted for 7 days. By counting the number of clones with ESC-like morphology at day 18, both OAC1 and its analogs OAC2 and OAC3 enhanced the 4F-induced reprogramming efficiency considerably. The number of colonies with ESC-like morphology (FIG. 2E) increased 2-fold or more in 4F plus OAC (4F+OAC) treatment, compared to the 4F treatment alone (FIG. 2F, Table 3).
iPSC Derivation in Mouse ESC Media: OG2/R26MEFs were seeded onto […] at the density of 4×10^4 cells per well in DMEM medium with 10% FBS, 0.1 mM non-essential amino acids (NEAA), and 0.1 mM L-glutamine, 24 hr before transduction. Freshly concentrated viruses of the four factors, Oct4, Sox2, c-Myc, and Klf4, were added to the cells. Two days after viral infection, the viral-transduced OG2/R26MEFs were split into new 6-well plates with irradiated MEF feeder cells and cultured in mouse ESC culture medium containing 15% ESC qualified FBS, 2 mM L-glutamine, 0.1 mM 2-mercaptoethanol, 0.1 mM NEAA, 1 mM sodium pyruvate and 1000 U/ml of leukemia inhibitory factor (LIF), and this day was defined as day 0. 1 μM of each compound (OAC1, OAC2, and OAC3) was added to the 4F-transduced cells at day 0 and treatment was continued for 1 week. When iPSC colonies emerged, these colonies were picked for expansion on irradiated MEF feeders in mouse ESC medium.

[2] = tested on: human fibroblast cells (IMR90); test: human iPSC derivation from 4F (OSKM)-transduced IMR90 fibroblasts; format: cell-based
Description: It has been shown that compound OAC1 (Oct4-activating compound I) and two of its structural analogs OAC2 and OAC3 can enhance reprogramming efficiency, when added to the reprogramming mixture along with the four transcription factors, Oct4, Sox2, Klf4, and c-Myc (OSKM), in mouse system. The OAC compounds were tested to determine if they can enhance reprogramming efficiency in human system. The reprogramming process was performed as described in the diagram (FIG. 14a). Briefly, human fibroblast cells (IMR90) were induced to reprogram into induced pluripotent stem cells (iPSCs) using the four reprogramming factors (4F), OSKM. The day when the cells were transduced with the four reprogramming factors was referred to as day 0. Cells were cultured in IMR90 media for six days. On day 6, the transduced cells were split and seeded onto feeders. On day 7, IMR90 culture media was changed to hESC culture media and started compound treatment. Compound treatment was lasted for one week. Cells were monitored for the appearance of human embryonic stem cell (ESC)-like colonies. On day 9, several small human ESC-like colonies appeared in both 4F+OAC1 and 4F+OAC2-treated cells, however, human ESC-like colonies were not observed in 4F+vehicle (4F)-treated cells until day 11. To determine the effect of OAC on the efficiency of human iPSC derivation, the number of human ESC-like colonies were counted under all three conditions at day 18. Both OAC 1 and its structural analog OAC2 increased the number of human ESC-like colonies more than two-fold (FIG. 14b, c). The human ESC-like colonies were picked from either 4F or 4F+OAC-treated cells and expanded under human ESC culture conditions. These cells were able to expand and stably produce human iPSC clones with characteristic human ESC-like morphology (FIG. 14d).

OCT4 promoter = test: Bisulfite genomic sequencing of OCT4 promoter in IMR90 fibroblasts; format: cell-based, human; settings: IMR90 fibroblasts treated for two days
Description: To uncover the mechanism of OAC 1-mediated improvement of reprogramming efficiency, it was tested whether OAC 1 functions through regulation of DNA methylation status on the endogenous Oct4 promoter. Human IMR90 fibroblast cells were treated with OAC1 or vehicle control for two days.
Bisulfite Genomic Sequencing: Genomic DNA was isolated from human IMR90 fibroblasts, MEFs, mouse ESCs, 4F+OAC1 and 4F+OAC2-iPSCs by digestion with proteinase K, followed by phenolchloroform extraction and ethanol precipitation. Bisulfite conversion of genomic DNAs was carried out using the EZ DNA Methylation-Gold kit (Zymo Research) according to manufacturer's instruction. The bisulfite-modified DNA was then used as a template for PCR to amplify the promoter regions of Oct4 and Nanog using PCR primers for human OCT4 (1), mouse Oct4 (52) and Nanog (2). The amplified products were cloned into the pCR2.1-TOPO cloning vector (Invitrogen), and 10 randomly selected clones were sequenced with T7 or M13R primers.

SMILES: O=C(Nc1cc2cc[nH]c2cn1)c1ccccc1 [OAC1, N-(1H-6-azaindol-5-yl)benzamide]
- advance of the appearance of putative iPSC colonies compared to 4F only reprogramming ([1]; 4F+OAC): about three to four
- Colony numbers ([1]; MEFs in mouse ESC media, OSKM, seeding 3 × 10^4, day 18, 1 μM compound): 130
- Reprogramming efficiency ([1]; MEFs in mouse ESC media, OSKM, seeding 3 × 10^4, day 18, colony numbers divided by seeding cell numbers): 0.43%
- day at which human ESC-like colonies appeared ([2]; IMR90, 4F+compound, day 0 = transduction, 4F+vehicle day 11): 9 days
- increase in the number of human ESC-like colonies ([2]; IMR90, day 18, versus 4F): more than two
- OCT4 promoter methylation status versus DMSO (OCT4 promoter): no significant difference
